Experimental data from US10294202B2, “Pyrrolidinones as herbicides” (FMC Corporation, priority 2013, dated 2019).

How the values were obtained:
morningglory = assay: Test A pre-/postemergence herbicide test; assay type: in vivo, Ipomoea spp.
Procedure, shortened: (§1)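 Scoring was visual, relative to untreated controls, on a 0–100 scale after about 10 greenhouse days. Preemergence treatment used a directed soil spray over seeded loam/sand; postemergence treatment targeted one- to two-leaf plants of 2–10 cm.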

barnyardgrass [1] = assay: Test A pre-/postemergence herbicide test; assay type: in vivo, Echinochloa crus-galli
Procedure, shortened: as §1

corn = assay: Test A pre-/postemergence herbicide test; assay type: in vivo, Zea mays
Procedure, shortened: as §1

pigweed = assay: Test A pre-/postemergence herbicide test; assay type: in vivo, Amaranthus retroflexus
Procedure, shortened: as §1

rice = assay: Test B flooded paddy test; assay type: in vivo, Oryza sativa; conditions: Flood, scale of 0 to 100 where 0 is no effect and 100 is complete control
Procedure, shortened: (§2)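 Plants grown to 2-leaf stage; pots flooded 3 cm above soil and compound applied directly into paddy water, depth held throughout. Visual rating against untreated controls after 13 to 15 days in greenhouse, 0 (no effect) to 100 (complete control).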

sedge, umbrella = assay: Test B flooded paddy test; assay type: in vivo, Cyperus difformis; conditions: Flood, scale of 0 to 100 where 0 is no effect and 100 is complete control
Procedure, shortened: as §2

wheat = assay: Test A pre-/postemergence herbicide test; assay type: in vivo, Triticum aestivum
Procedure, shortened: as §1

giant foxtail = assay: Test A pre-/postemergence herbicide test; assay type: in vivo, Setaria faberii
Procedure, shortened: as §1

ducksalad = assay: Test B flooded paddy test; assay type: in vivo, Heteranthera limosa; conditions: Flood, scale of 0 to 100 where 0 is no effect and 100 is complete control
Procedure, shortened: as §2

velvetleaf = assay: Test A pre-/postemergence herbicide test; assay type: in vivo, Abutilon theophrasti
Procedure, shortened: as §1

crabgrass, large = assay: Test A pre-/postemergence herbicide test; assay type: in vivo, Digitaria sanguinalis
Procedure, shortened: as §1

barnyardgrass [2] = assay: Test B flooded paddy test; assay type: in vivo, Echinochloa crus-galli; conditions: Flood, scale of 0 to 100 where 0 is no effect and 100 is complete control
Procedure, shortened: as §2

[3] = Postemergence, 125 g ai/ha, 0 to 100 scale, 0 is no effect, 100 is complete control
[4] = Postemergence, 500 g ai/ha, 0 to 100 scale (0 no effect, 100 complete control)
[5] = Preemergence, 125 g ai/ha, 0 to 100 scale where 0 is no effect and 100 is complete control
[6] = preemergence, 500 g ai/ha, 0 to 100 scale, 0 is no effect and 100 is complete control
[7] = Postemergence, 125 g ai/ha, visual rating on 0 to 100 scale (0 no effect, 100 complete control), approx. 10 days
[8] = Postemergence, 125 g ai/ha, 0 to 100 scale, 0 no effect, 100 complete control
[9] = Preemergence, 125 g ai/ha, visual rating on 0 to 100 scale (0 no effect, 100 complete control)
[10] = preemergence, 500 g ai/ha, 0 to 100 scale
[11] = Postemergence, 1000 g ai/ha, 0 to 100 scale (0 no effect, 100 complete control)
[12] = Preemergence, 1000 g ai/ha, visual rating on 0 to 100 scale (0 no effect, 100 complete control), approx. 10 days

O=C1NCC(c2ccc(C(F)(F)F)cc2F)C1C(=O)Nc1cccc(F)c1F (racemic) [Compound 260]
40: Plant response rating, Velvetleaf (velvetleaf; [6])
10: Plant response rating, Corn (corn; [6])
70: Plant response rating, Barnyardgrass (barnyardgrass [1]; [3]) | Plant response rating, Barnyardgrass (barnyardgrass [1]; [5]) | Plant response rating, Pigweed (pigweed; [4])
50: Plant response rating, Morningglory (morningglory; [4]) | Plant response rating, Morningglory (morningglory; [6])
95: Plant response rating, Ducksalad (ducksalad; 1000 g ai/ha)
20: Plant response rating, Morningglory (morningglory; [5])
0: Plant response rating, Morningglory (morningglory; [3]) | Plant response rating, Corn (corn; [3]) | Plant response rating, Corn (corn; [4]) | Plant response rating, Corn (corn; [5]) | Plant response rating, Rice (rice; 1000 g ai/ha) | Plant response rating, Sedge, Umbrella (sedge, umbrella; 1000 g ai/ha) | Plant response rating, Wheat (wheat; [3]) | Plant response rating, Wheat (wheat; [4]) | Plant response rating, Wheat (wheat; [5]) | Plant response rating, Wheat (wheat; [6]) | Plant response rating, Barnyardgrass (barnyardgrass [2]; 1000 g ai/ha)
80: Plant response rating, Barnyardgrass (barnyardgrass [1]; [4]) | Plant response rating, Barnyardgrass (barnyardgrass [1]; [6]) | Plant response rating, Pigweed (pigweed; [6]) | Plant response rating, Foxtail, Giant (giant foxtail; [3]) | Plant response rating, Foxtail, Giant (giant foxtail; [5])
90: Plant response rating, Foxtail, Giant (giant foxtail; [4]) | Plant response rating, Foxtail, Giant (giant foxtail; [6]) | Plant response rating, Crabgrass, Large (crabgrass, large; [3]) | Plant response rating, Crabgrass, Large (crabgrass, large; [4]) | Plant response rating, Crabgrass, Large (crabgrass, large; [5]) | Plant response rating, Crabgrass, Large (crabgrass, large; [6])
60: Plant response rating, Pigweed (pigweed; [3]) | Plant response rating, Pigweed (pigweed; [5])

O=C1NCC(c2ccc(C(F)(F)F)cc2F)C1C(=O)Nc1ccccc1C(F)(F)F (racemic) [Compound 261]
70: Plant response rating, Foxtail, Giant (giant foxtail; [6]) | Plant response rating, Crabgrass, Large (crabgrass, large; [3])
30: Plant response rating, Velvetleaf (velvetleaf; [4])
60: Plant response rating, Foxtail, Giant (giant foxtail; [4])
80: Plant response rating, Crabgrass, Large (crabgrass, large; [4]) | Plant response rating, Crabgrass, Large (crabgrass, large; [5])
0: Plant response rating, Morningglory (morningglory; [3]) | Plant response rating, Morningglory (morningglory; [4]) | Plant response rating, Morningglory (morningglory; [5]) | Plant response rating, Morningglory (morningglory; [6]) | Plant response rating, Barnyardgrass (barnyardgrass [1]; [3]) | Plant response rating, Barnyardgrass (barnyardgrass [1]; [5]) | Plant response rating, Barnyardgrass (barnyardgrass [1]; [6]) | Plant response rating, Corn (corn; [3]) | Plant response rating, Corn (corn; [4]) | Plant response rating, Corn (corn; [5]) | Plant response rating, Corn (corn; [6]) | Plant response rating, Pigweed (pigweed; [3]) | Plant response rating, Pigweed (pigweed; [5]) | Plant response rating, Pigweed (pigweed; [6]) | Plant response rating, Rice (rice; 1000 g ai/ha) | Plant response rating, Sedge, Umbrella (sedge, umbrella; 1000 g ai/ha) | Plant response rating, Wheat (wheat; [3]) | Plant response rating, Wheat (wheat; [4]) | Plant response rating, Wheat (wheat; [5]) | Plant response rating, Wheat (wheat; [6]) | Plant response rating, Foxtail, Giant (giant foxtail; [3]) | Plant response rating, Velvetleaf (velvetleaf; [3]) | Plant response rating, Velvetleaf (velvetleaf; [5]) | Plant response rating, Velvetleaf (velvetleaf; [6]) | Plant response rating, Barnyardgrass (barnyardgrass [2]; 1000 g ai/ha)
10: Plant response rating, Foxtail, Giant (giant foxtail; [5])
50: Plant response rating, Barnyardgrass (barnyardgrass [1]; [4])
40: Plant response rating, Pigweed (pigweed; [4])
90: Plant response rating, Ducksalad (ducksalad; 1000 g ai/ha) | Plant response rating, Crabgrass, Large (crabgrass, large; [6])

O=C1NCC(c2ccc(Cl)c(C(F)(F)F)c2)C1C(=O)Nc1ccccc1F (racemic) [Compound 267]
15: Plant response rating, Rice (rice; 1000 g ai/ha)
0: Plant response rating, Morningglory (morningglory; [7]) | Plant response rating, Morningglory (morningglory; [5]) | Plant response rating, Morningglory (morningglory; [6]) | Plant response rating, Corn (corn; [5]) | Plant response rating, Corn (corn; [6]) | Plant response rating, Pigweed (pigweed; [7]) | Plant response rating, Pigweed (pigweed; [5]) | Plant response rating, Sedge, Umbrella (sedge, umbrella; 1000 g ai/ha) | Plant response rating, Wheat (wheat; [7]) | Plant response rating, Wheat (wheat; [4]) | Plant response rating, Wheat (wheat; [5]) | Plant response rating, Wheat (wheat; [6]) | Plant response rating, Velvetleaf (velvetleaf; [5]) | Plant response rating, Velvetleaf (velvetleaf; [6])
60: Plant response rating, Morningglory (morningglory; [4]) | Plant response rating, Pigweed (pigweed; [4])
90: Plant response rating, Foxtail, Giant (giant foxtail; [6]) | Plant response rating, Crabgrass, Large (crabgrass, large; [4]) | Plant response rating, Crabgrass, Large (crabgrass, large; [5]) | Plant response rating, Crabgrass, Large (crabgrass, large; [6])
70: Plant response rating, Barnyardgrass (barnyardgrass [1]; [3]) | Plant response rating, Barnyardgrass (barnyardgrass [1]; [5]) | Plant response rating, Corn (corn; [4]) | Plant response rating, Foxtail, Giant (giant foxtail; [3])
80: Plant response rating, Barnyardgrass (barnyardgrass [1]; [4]) | Plant response rating, Barnyardgrass (barnyardgrass [1]; [6]) | Plant response rating, Foxtail, Giant (giant foxtail; [4]) | Plant response rating, Foxtail, Giant (giant foxtail; [5]) | Plant response rating, Crabgrass, Large (crabgrass, large; [3])
50: Plant response rating, Pigweed (pigweed; [6])
100: Plant response rating, Ducksalad (ducksalad; 1000 g ai/ha)
20: Plant response rating, Barnyardgrass (barnyardgrass [2]; 1000 g ai/ha)
30: Plant response rating, Velvetleaf (velvetleaf; [7])
40: Plant response rating, Corn (corn; [3])

Cc1cccc(C2CN(C(=O)OC(C)(C)C)C(=O)C2C(=O)Nc2ccccc2F)c1 (stereo not drawn) [Compound 37]
80: Plant response rating, Barnyardgrass (barnyardgrass [1]; preemergence, 500 g ai/ha, 0 to 100 scale (0 no effect, 100 complete control)) | Plant response rating, Crabgrass, Large (crabgrass, large; [10])
20: Plant response rating, Sedge, Umbrella (sedge, umbrella; 250 g ai/ha) | Plant response rating, Foxtail, Giant (giant foxtail; [4]) | Plant response rating, Foxtail, Giant (giant foxtail; [10]) | Plant response rating, Crabgrass, Large (crabgrass, large; [4])
50: Plant response rating, Barnyardgrass (barnyardgrass [1]; [4])
30: Plant response rating, Wheat (wheat; [10])
0: Plant response rating, Morningglory (morningglory; [8]) | Plant response rating, Morningglory (morningglory; [4]) | Morningglory plant response rating (morningglory; [9]) | Plant response rating, Morningglory (morningglory; [10]) | Plant response rating, Barnyardgrass (barnyardgrass [1]; [8]) | Barnyardgrass plant response rating (barnyardgrass [1]; [9]) | Plant response rating, Corn (corn; [8]) | Plant response rating, Corn (corn; [4]) | Corn plant response rating (corn; [9]) | Plant response rating, Corn (corn; [10]) | Plant response rating, Pigweed (pigweed; [8]) | Plant response rating, Pigweed (pigweed; [4]) | Pigweed plant response rating (pigweed; [9]) | Plant response rating, Pigweed (pigweed; [10]) | Plant response rating, Rice (rice; 250 g ai/ha) | Plant response rating, Wheat (wheat; [8]) | Plant response rating, Wheat (wheat; [4]) | Wheat plant response rating (wheat; [9]) | Plant response rating, Foxtail, Giant (giant foxtail; [8]) | Foxtail, Giant plant response rating (giant foxtail; [9]) | Plant response rating, Ducksalad (ducksalad; 250 g ai/ha) | Plant response rating, Velvetleaf (velvetleaf; [8]) | Plant response rating, Velvetleaf (velvetleaf; [4]) | Velvetleaf plant response rating (velvetleaf; [9]) | Plant response rating, Velvetleaf (velvetleaf; [10]) | Plant response rating, Crabgrass, Large (crabgrass, large; [8]) | Crabgrass, Large plant response rating (crabgrass, large; [9]) | Plant response rating, Barnyardgrass (barnyardgrass [2]; 250 g ai/ha)

O=C1NCC(c2ccc(Cl)c(Cl)c2)C1C(=O)Nc1ccccc1[N+](=O)[O-] (stereo not drawn) [Compound 39]
40: Plant response rating, Wheat (wheat; [11])
0: Plant response rating, Morningglory (morningglory; [12]) | Plant response rating, Corn (corn; [11]) | Plant response rating, Corn (corn; [12]) | Plant response rating, Pigweed (pigweed; [12]) | Plant response rating, Rice (rice; 250 g ai/ha) | Plant response rating, Sedge, Umbrella (sedge, umbrella; 250 g ai/ha) | Plant response rating, Wheat (wheat; [12]) | Plant response rating, Ducksalad (ducksalad; 250 g ai/ha) | Plant response rating, Velvetleaf (velvetleaf; [12]) | Plant response rating, Barnyardgrass (barnyardgrass [2]; 250 g ai/ha)
90: Plant response rating, Crabgrass, Large (crabgrass, large; [12])
70: Plant response rating, Barnyardgrass (barnyardgrass [1]; [12]) | Plant response rating, Foxtail, Giant (giant foxtail; [11])
10: Plant response rating, Morningglory (morningglory; [11]) | Plant response rating, Velvetleaf (velvetleaf; [11])
50: Plant response rating, Barnyardgrass (barnyardgrass [1]; [11]) | Plant response rating, Pigweed (pigweed; [11])
80: Plant response rating, Foxtail, Giant (giant foxtail; [12]) | Plant response rating, Crabgrass, Large (crabgrass, large; [11])

Cc1ccccc1NC(=O)C1C(=O)NCC1c1ccc(Cl)c(Cl)c1 (stereo not drawn) [Compound 40]
90: Plant response rating, Barnyardgrass (barnyardgrass [1]; [12]) | Plant response rating, Foxtail, Giant (giant foxtail; [11]) | Plant response rating, Foxtail, Giant (giant foxtail; [12]) | Plant response rating, Crabgrass, Large (crabgrass, large; [11]) | Plant response rating, Crabgrass, Large (crabgrass, large; [12])
0: Plant response rating, Morningglory (morningglory; [12]) | Plant response rating, Pigweed (pigweed; [11]) | Plant response rating, Pigweed (pigweed; [12]) | Plant response rating, Rice (rice; 250 g ai/ha) | Plant response rating, Sedge, Umbrella (sedge, umbrella; 250 g ai/ha) | Plant response rating, Ducksalad (ducksalad; 250 g ai/ha) | Plant response rating, Velvetleaf (velvetleaf; [11]) | Plant response rating, Velvetleaf (velvetleaf; [12]) | Plant response rating, Barnyardgrass (barnyardgrass [2]; 250 g ai/ha)
10: Plant response rating, Morningglory (morningglory; [11])
30: Plant response rating, Corn (corn; [12])
80: Plant response rating, Barnyardgrass (barnyardgrass [1]; [11])
20: Plant response rating, Corn (corn; [11]) | Plant response rating, Wheat (wheat; [11]) | Plant response rating, Wheat (wheat; [12])
